Legend:
[1] = molecular target: Transient receptor potential M8 protein (Canis lupus familiaris, UniProt Q1A7N1); experiment: Antagonist activity at dog TRPM8 expressed in HEK293 cells assessed as inhibition of icilin-induced calcium influx incubated for 5 mins prior to icilin induction measured after 5 mins by fluorescence assay; assay type: cell-based
Rattus norvegicus = experiment: Anti-cold hypersensitive activity in rat assessed as inhibition of icilin-induced wet-dog shaking at 30 mg/kg, po measured for 10 mins relative to control; assay type: functional

Chain of Transient receptor potential M8 protein (Q1A7N1 whole entry): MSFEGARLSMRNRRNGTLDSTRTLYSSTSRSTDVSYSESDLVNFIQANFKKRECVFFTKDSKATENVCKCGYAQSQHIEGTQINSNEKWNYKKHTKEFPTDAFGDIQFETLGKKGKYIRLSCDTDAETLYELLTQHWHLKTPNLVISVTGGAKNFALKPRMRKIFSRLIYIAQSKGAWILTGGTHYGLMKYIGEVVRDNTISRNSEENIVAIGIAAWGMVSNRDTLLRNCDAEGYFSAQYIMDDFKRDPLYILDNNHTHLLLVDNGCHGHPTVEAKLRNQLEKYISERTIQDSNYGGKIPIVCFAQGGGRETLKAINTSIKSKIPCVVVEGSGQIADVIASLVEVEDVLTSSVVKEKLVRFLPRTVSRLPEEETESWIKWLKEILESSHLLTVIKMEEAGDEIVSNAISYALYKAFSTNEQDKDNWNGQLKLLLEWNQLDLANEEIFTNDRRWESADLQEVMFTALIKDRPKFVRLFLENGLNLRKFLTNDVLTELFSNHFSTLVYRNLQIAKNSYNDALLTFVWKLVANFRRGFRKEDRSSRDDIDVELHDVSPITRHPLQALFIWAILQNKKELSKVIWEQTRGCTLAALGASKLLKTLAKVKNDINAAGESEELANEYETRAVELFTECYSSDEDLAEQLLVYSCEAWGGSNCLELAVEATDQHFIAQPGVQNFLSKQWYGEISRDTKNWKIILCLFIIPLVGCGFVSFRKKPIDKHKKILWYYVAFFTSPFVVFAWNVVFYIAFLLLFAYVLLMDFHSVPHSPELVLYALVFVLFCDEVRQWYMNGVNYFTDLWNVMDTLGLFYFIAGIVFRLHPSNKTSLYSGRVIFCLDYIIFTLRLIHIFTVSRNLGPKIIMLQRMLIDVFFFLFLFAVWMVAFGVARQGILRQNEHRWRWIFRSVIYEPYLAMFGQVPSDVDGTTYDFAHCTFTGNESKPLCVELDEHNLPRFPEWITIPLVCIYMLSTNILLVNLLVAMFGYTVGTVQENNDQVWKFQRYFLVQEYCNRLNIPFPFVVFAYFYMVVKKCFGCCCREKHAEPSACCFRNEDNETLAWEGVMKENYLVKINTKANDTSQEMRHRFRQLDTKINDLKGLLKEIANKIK

Row | SMILES | IC50 [1] [nM] | inhibition in vivo at 30 mg/kg (Rattus norvegicus) [%]
1 | O=C(C(Nc1ccccc1F)c1ccc(Br)cc1)N1CCC[C@H]1c1ccccc1F (mixture of isomers) | 9 | 
2 | O=C(O)c1ccc(-c2ccc(C(Nc3ccccc3F)C(=O)N3CCC[C@H]3c3ccccc3F)cc2)cc1 (mixture of isomers) | 56 | 
3 | O=C(C(Nc1ccccc1F)c1ccc(C(F)(F)F)cc1)N1CCC[C@H]1c1ccccc1Cl (mixture of isomers) | 17 | 79
4 | O=C(C(Nc1ccccc1F)c1ccc(-c2ccncc2)cc1)N1CCCC1c1ccccc1F (racemic) | 25 | 
5 | O=C(C(Nc1ccccc1F)c1cc2ccccc2s1)N1CCC[C@H]1c1ccccc1F (mixture of isomers) | 3 | 
6 | O=C(C(Nc1ccccc1)c1ccc(C(F)(F)F)cc1)N1CCC[C@@H]1c1ccccc1Cl (mixture of isomers) | 168 | 
7 | O=C(C(Nc1ccccc1F)c1ccc(C(F)(F)F)cc1)N1CCC[C@H]1c1ccccc1 (mixture of isomers) | 5 | 56
8 | O=C([C@@H](Nc1ccccc1F)c1ccc(C(F)(F)F)cc1)N1CCC[C@H]1c1ccccc1F | 6 | 99
9 | O=C(C(Nc1ccccc1F)c1ccc(C(F)(F)F)cc1)N1CCC[C@H]1c1ccccc1F (mixture of isomers) | 8 | 63
10 | O=C(C(Nc1ccccc1F)c1ccc(C(F)(F)F)cc1)N1CCC[C@@H]1c1ccccc1 (stereo partly drawn) | 43 | 
11 | O=C(C(Nc1ccccc1F)c1ccc(C(F)(F)F)cc1)N1CCCC1c1ccccc1F (racemic) | 7 | 
12 | O=C([C@H](Nc1ccccc1F)c1ccc(C(F)(F)F)cc1)N1CCC[C@H]1c1ccccc1F | 45 | 
13 | O=C(C(Nc1ccccc1F)c1ccc(C(F)(F)F)cc1)N1CCCC1c1ccccc1Cl (racemic) | 11 | 
14 | O=C(O)c1cccc(C2CCCN2C(=O)C(Nc2ccccc2F)c2ccc(C(F)(F)F)cc2)c1 (racemic) | 40 | 
15 | O=C(C(Nc1ccccc1F)c1ccc(-c2cccnc2)cc1)N1CCC[C@H]1c1ccccc1F (mixture of isomers) | 7 | -13
16 | O=C(C(Nc1ccccc1F)c1ccc(C(F)(F)F)cc1)N1CCC[C@@H]1c1ccccc1F (mixture of isomers) | 44 | 
17 | O=C(C(Nc1ccccc1)c1ccc(C(F)(F)F)cc1)N1CCC[C@H]1c1ccccc1Cl (mixture of isomers) | 41 | 
18 | O=C(O)c1ccc(C2CCCN2C(=O)C(Nc2ccccc2F)c2cc3ccccc3s2)cc1 (racemic) | 41 | 

Reference: ChEMBL document CHEMBL2346592, “Arylglycine derivatives as potent transient receptor potential melastatin 8 (TRPM8) antagonists” (Bioorg Med Chem Lett, 2013)
